These results are taken from patent US20110124620A1, “SPHINGOSINE 1 PHOSPHATE RECEPTOR MODUATORS AND THEIR USE TO TREAT MUSCLE INFLAMMATION” (priority 2008, published 2011).

For the experiment, the system named is Primary Human Myotubes. Put plainly: Effect on cytokine-induced atrophy of primary human myotubes (myotube diameter). Type of experiment: cell-based. The protocol:
In Vitro: Effect on Cytokine-Induced Atrophy of Primary Human Myotubes.
Human skeletal muscle (skMC) cells are obtained from Cambrex (#CC-2561). For experiments skMC stocks are thawed and maintained in SkBM (Lonza CC-3161) containing 20% FCS and 0.1% gentamycin at 37° C., 5% CO2. After 4-5 days cells are seeded for experiments onto six-well plates coated with matrigel (450,000/well) and grown at 37° C., 5% CO2 for one day. Cells are then washed 3× with SkBM and differentiated into myotubes with SkBM containing 1 μM SB431542 (ALK4/5 inhibitor; Sigma #S4317) for 4 days (SB431542 is removed 24 h prior cell treatment). Myotubes are then treated with test compound either in the absence or in the presence of a cytokine cocktail (TNFα 10 ng/ml, IL-1β 2 ng/ml, IFNγ 10 ng/ml) for 24 h in SkBM plus 0.1% gentamycin, washed once with CSB buffer: 80 mM pipes, […], 1 mM MgCl 6H20 and 4% PEG35000 (Fluka #94646) and fixed with 4% paraformaldehyde (Electron Microscopy Sciences #15714) in CSB for 15 min at room temperature. […] Average diameters of at least 40 myotubes are measured for each condition at three points separated by 50 μm along the length of the myotube.

Turning to `CCc1cc(C(C)=NOCc2ccc(C3CCCCC3)c(C(F)(F)F)c2)ccc1CN1CC(C(=O)O)C1` [Compound A, 1-{4-[1-(4-cyclohexyl-3-trifluoromethyl-benzyloxyimino)-ethyl]-2-ethyl-benzyl}-azetidine-3-carboxylic acid], the “effect on cytokine-induced atrophy (myotube diameter)” value is recorded as “block almost completely the cytokine-induced atrophy” (Compound A 1 nM, cytokine cocktail (TNFα 10 ng/ml, IL-1β 2 ng/ml, IFNγ 10 ng/ml) for 24 h, cocktail alone gives approx. 20% decrease in myotube diameter vs vehicle control) and “exert the same effect” (higher concentrations of Compound A (above 1 nM), cytokine cocktail for 24 h).
